Reference: PMC12102032, “Chemoproteomics unveils Sofalcone targeting ribosomal proteins to inhibit protein synthesis in Staphylococcus aureus” (Molecular Biomedicine, 2025)

What was measured:
[1] = biological target: T1, 50S ribosomal protein rplB (Staphylococcus aureus, UniProt P60430); experiment: microscale thermophoresis; also thermal shift of pure protein and competition with Sof-P labeling; assay type: binding
T1 construct: purified recombinant S. aureus rplB protein (His-Tag labeled)

[2] = biological target: T2, 50S ribosomal protein rplB (Staphylococcus aureus, UniProt P60430); experiment: in-gel fluorescence covalent labeling of purified recombinant protein (click chemistry), competed by Sof and IAA; assay type: binding
T2 construct: purified recombinant rplB protein
T2 sequence (P60430 1-277): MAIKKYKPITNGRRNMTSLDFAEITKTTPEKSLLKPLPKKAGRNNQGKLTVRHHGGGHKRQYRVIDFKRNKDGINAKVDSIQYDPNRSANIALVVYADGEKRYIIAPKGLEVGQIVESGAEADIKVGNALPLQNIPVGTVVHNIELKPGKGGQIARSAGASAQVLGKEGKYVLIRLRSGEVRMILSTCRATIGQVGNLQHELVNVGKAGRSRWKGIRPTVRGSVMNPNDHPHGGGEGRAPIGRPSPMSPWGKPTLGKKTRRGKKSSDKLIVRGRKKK

Row | Structure (SMILES) | Kd [1] [µM] | in-gel fluorescence covalent labeling of purified recombinant protein (click che) [2]
1 | CC(C)=CCOc1ccc(/C=C/C(=O)c2ccc(OCC=C(C)C)cc2OCC(=O)O)cc1 [Sof, 2′-carboxymethoxy-4,4′-bis(3-methyl-2-butenyloxy) chalcone] | 1.27 | –
2 | C#CCNC(=O)COc1cc(OCC=C(C)C)ccc1C(=O)/C=C/c1ccc(OCC=C(C)C)cc1 [Sof-P] | – | Sof-P labeling of recombinant rplB was concentration-dependent and was effectively competed by excess Sof or iodoacetamide (IAA)
